biological target: human PAD4 (hPAD4) (Homo sapiens, UniProt Q9UM07); test: RFMS human PAD4 functional assay (rapid-fire mass spectrum); format: biochemical; conditions: 5 nM hPAD4 enzyme, 250 μM BAEE, 50 μM Calcium; 30 min preincubation, 90 min reaction at 37° C.
Procedure, shortened: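 PAD4 (10 nM) preincubated 30 min with compound (top final 50 μM), then BAEE substrate added in pH 7.5 HEPES buffer with DTT, 50 μM calcium, TPEN; 90 min at 37° C. After TCA quench, citrulline derivatized with phenyl glyoxal (4 mM final, 30 min, 37° C) and quantified by RapidFire MS against internal standard.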

Chain of human PAD4 (hPAD4) (Q9UM07 whole entry): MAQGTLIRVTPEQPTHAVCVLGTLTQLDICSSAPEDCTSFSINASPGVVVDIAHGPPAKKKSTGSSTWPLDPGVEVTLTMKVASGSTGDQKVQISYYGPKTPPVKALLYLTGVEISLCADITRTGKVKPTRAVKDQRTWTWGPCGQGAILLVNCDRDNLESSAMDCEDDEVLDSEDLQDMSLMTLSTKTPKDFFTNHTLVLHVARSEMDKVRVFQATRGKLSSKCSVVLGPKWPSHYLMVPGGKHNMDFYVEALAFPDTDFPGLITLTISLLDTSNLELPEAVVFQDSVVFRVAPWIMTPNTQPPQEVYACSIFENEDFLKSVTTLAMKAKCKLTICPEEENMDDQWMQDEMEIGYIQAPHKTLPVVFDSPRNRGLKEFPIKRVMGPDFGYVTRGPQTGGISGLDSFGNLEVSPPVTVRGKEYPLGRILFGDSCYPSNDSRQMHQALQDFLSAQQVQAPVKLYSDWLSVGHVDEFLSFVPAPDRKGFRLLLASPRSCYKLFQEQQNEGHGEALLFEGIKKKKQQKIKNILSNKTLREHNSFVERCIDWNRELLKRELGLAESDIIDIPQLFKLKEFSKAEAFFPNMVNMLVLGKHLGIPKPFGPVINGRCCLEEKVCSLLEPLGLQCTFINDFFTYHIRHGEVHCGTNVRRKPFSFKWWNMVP

Row | SMILES | IC50
1 | COc1cc(C(=O)N2C[C@H]3CC[C@@H]2[C@@H]3N)cc2nc(-c3cc4cccnc4n3C)n(C[C@@H]3CCN(c4ncccn4)C3)c12 [Example 232, (1R,4R,7R)-2-(7-methoxy-2-{1-methyl-1H-pyrrolo[2,3-b]pyridin-2-yl}-1-{[(3S)-1-(pyrimidin-2-yl)pyrrolidin-3-yl]methyl}-1H-1,3-benzodiazole-5-carbonyl)-2-azabicyclo[2.2.1]heptan-7-amine] | 310 nM
2 | COc1cc(C(=O)N2C[C@H]3CC[C@@H]2[C@@H]3N)cc2nc(-c3cc4cccnc4n3CC3CC3)n(CC3CCN(C(=O)c4ccncn4)CC3)c12 [Example 233, (1R,4R,7R)-2-{2-[1-(cyclopropylmethyl)-1H-pyrrolo[2,3-b]pyridin-2-yl]-7-methoxy-1-{[1-(pyrimidine-4-carbonyl)piperidin-4-yl]methyl}-1H-1,3-benzodiazole-5-carbonyl}-2-azabicyclo[2.2.1]heptan-7-amine] | 315 nM
3 | COc1cc(C(=O)N2CC3CCC2[C@@H]3N)cc2nc(-c3cc4cccnc4n3CC3CC3)n(CC3CCN(C(=O)c4ncccn4)CC3)c12 (stereo partly drawn) [Example 236, (1R,4R.,7R)-2-{2-[1-(cyclopropylmethyl)-1H-pyrrolo[2,3-b]pyridin-2-yl]-7-methoxy-1-{[1-(pyrimidine-2-carbonyl)piperidin-4-yl]methyl}-1H-1,3-benzodiazole-5-carbonyl}-2-azabicyclo[2.2.1]heptan-7-amine] | 402 nM
4 | COc1cc(C(=O)N2CC3CCC2[C@@H]3N)cc2nc(-c3cc4cccnc4n3CC3CC3)n(C3CCN(c4ccnc(C#N)n4)CC3)c12 (stereo partly drawn) [Example 237, 4-(4-{5-[(1R,4R,7R)-7-amino-2-azabicyclo[2.2.1]heptane-2-carbonyl]-2-[1-(cyclopropylmethyl)-1H-pyrrolo[2,3-b]pyridin-2-yl]-7-methoxy-1H-1,3-benzodiazol-1-yl}piperidin-l-yl)pyrimidine-2-carbonitrile] | 540 nM
5 | COc1cc(C(=O)N2CC3CCC2[C@@H]3N)cc2nc(-c3cc4cccnc4n3CC3CC3)n(C3CCN(c4ccnc(C)n4)CC3)c12 (stereo partly drawn) [Example 238, (1R.,4R,7R)-2-{2-[1-(cyclopropylmethyl)-1H-pyrrolo[2,3-b]pyridin-2-yl]-7-methoxy-1-[1-(2-methylpyrimidin-4-yl)piperidin-4-yl]-1H-1,3-benzodiazole-5-carbonyl}-2-azabicyclo[2.2.1]heptan-7-amine] | 922 nM
6 | COc1cc(C(=O)N2CC3CCC2[C@@H]3N)cc2nc(-c3cc4cccnc4n3CC3CC3)n(C3CCN(C(=O)c4ccnc(Cl)c4)CC3)c12 (stereo partly drawn) [Example 239, (1R,4R.,7R)-2-{1-[1-(2-chloropyridine-4-carbonyl)piperidin-4-yl]-2-[1-(cyclopropylmethyl)-1H-pyrrolo[2,3-b]pyridin-2-yl]-7-methoxy-1H-1,3-benzodiazole-5-carbonyl}-2-azabicyclo[2.2.1]heptan-7-amine] | 927 nM
7 | COc1cc(C(=O)N2C[C@H]3CC[C@@H]2[C@@H]3N)cc2nc(-c3cc4cccnc4n3CC3CC3)n(C3CCN(C(=O)c4ccnc(C#N)c4)CC3)c12 [Example 240, 4-(4-{5-[(1R,4R,7R)-7-amino-2-azabicyclo[2.2.1]heptane-2-carbonyl]-2-[1-(cyclopropylmethyl)-1H-pyrrolo[2,3-b]pyridin-2-yl]-7-methoxy-1H-1,3-benzodiazol-1-yl}piperidine-1-carbonyl)pyridine-2-carbonitrile] | 1440 nM
8 | COc1cc(C(=O)N2C[C@H]3CC[C@@H]2[C@@H]3N)cc2nc(-c3cc4cccnc4n3CC3CC3)n(C3CCN(C(=O)c4ccnc(F)c4)CC3)c12 [Example 241, (1R,4R,7R)-2-{2-[1-(cyclopropylmethyl)-1H-pyrrolo[2,3-b]pyridin-2-yl]-1-[1-(2-fluoropyridine-4-carbonyl)piperidin-4-yl]-7-methoxy-1H-1,3-benzodiazole-5-carbonyl}-2-azabicyclo[2.2.1]heptan-7-amine] | 2540 nM
9 | COc1cc(C(=O)N2C[C@H](N)C[C@@H](F)C2)cc2nc(-c3cc4ccccc4n3CC3CC3)n(Cc3cccnc3)c12 [Example 248, ((3R,5R)-3-amino-5-fluoropiperidin-1-yl)(2-(1-(cyclopropylmethyl)-1H-indol-2-yl)-7-methoxy-1-(pyridin-3-ylmethyl)-1H-benzo[d]imidazol-5-yl)methanone] | 116 nM
10 | COc1cc(C(=O)N2C[C@H](N)C[C@@H](F)C2)cc2nc(-c3cc4cccnc4n3CC3CC3)n(Cc3cnn(C)c3)c12 [Example 250, ((3R,5R)-3-amino-5-fluoropiperidin-1-yl)(2-(1-(cyclopropylmethyl)-1H-pyrrolo[2,3-b]pyridin-2-yl)-7-methoxy-1-((1-methyl-1H-pyrazol-4-yl)methyl)-1H-benzo[d]imidazol-5-yl)methanone] | 89 nM
11 | COc1cc(C(=O)N2C[C@H](N)CC[C@@H]2C)cc2nc(-c3cc4ccccc4n3CC3CC3)n(Cc3cnn(C)c3)c12 [Example 251, ((2S,5R)-5-amino-2-methylpiperidin-1-yl)(2-(1-(cyclopropylmethyl)-1H-indol-2-yl)-7-methoxy-1-((1-methyl-1H-pyrazol-4-yl)methyl)-1H-benzo[d]imidazol-5-yl)methanone] | 48 nM

The next compounds have a lower IC50 than those just listed; values first:

Row | IC50 | SMILES
12 | 41 nM | COc1cc(C(=O)N2C[C@H]3CC[C@@H]2[C@@H]3N)cc2nc(-c3cc4ccccc4n3CC3CC3)n(Cc3cnn(C)c3)c12 [Example 242, (1R,4R,7R)-2-{2-[1-(cyclopropylmethyl)-1H-indol-2-yl]-7-methoxy-1-[(1-methyl-1H-pyrazol-4-yl)methyl]-1H-1,3-benzodiazole-5-carbonyl}-2-azabicyclo[2.2.1]heptan-7-amine]
13 | 33 nM | COc1cc(C(=O)N2C[C@H]3CC[C@@H]2[C@@H]3N)cc2nc(-c3cc4cccnc4n3CC3CC3)n(Cc3cnn(C)c3)c12 [Example 243, (1R,4R,7R)-2-{2-[1-(cyclopropylmethyl)-1H-pyrrolo[2,3-b]pyridin-2-yl]-7-methoxy-1-[(1-methyl-1H-pyrazol-4-yl)methyl]-1H-1,3-benzodiazole-5-carbonyl}-2-azabicyclo[2.2.1]heptan-7-amine]
14 | 11 nM | COc1cc(C(=O)N2C[C@H]3CC[C@@H]2[C@@H]3N)cc2nc(-c3cc4ccccc4n3CC3CC3)n(Cc3ccc(N)nc3)c12 [Example 244, (1R,4R,7R)-2-{1-[(6-aminopyridin-3-yl)methyl]-2-[1-(cyclopropylmethyl)-1H-indol-2-yl]-7-methoxy-1H-1,3-benzodiazole-5-carbonyl}-2-azabicyclo[2.2.1]heptan-7-amine]
15 | 20 nM | COc1cc(C(=O)N2C[C@H]3CC[C@@H]2[C@@H]3N)cc2nc(-c3cc4ccccc4n3CC3CC3)n(CCC3CCS(=O)(=O)CC3)c12 [Example 245, ((1R,4R,7R)-7-amino-2-azabicyclo[2.2.1]heptan-2-yl)(2-(1-(cyclopropylmethyl)-1H-indol-2-yl)-1-(2-(1,1-dioxidotetrahydro-2H-thiopyran-4-yl)ethyl)-7-methoxy-1H-benzo[d]imidazol-5-yl)methanone]
16 | 25 nM | COc1cc(C(=O)N2C[C@H]3CC[C@@H]2[C@@H]3N)cc2nc(-c3cc4ccccc4n3CC3CC3)n(Cc3cccnc3)c12 [Example 246, (1R,4R,7R)-2-{2-[1-(cyclopropylmethyl)-1H-indol-2-yl]-7-methoxy-1-[(pyridin-3-yl)methyl]-1H-1,3-benzodiazole-5-carbonyl}-2-azabicyclo[2.2.1]heptan-7-amine]
17 | 27 nM | COc1cc(C(=O)N2C[C@H]3CC[C@@H]2[C@@H]3N)cc2nc(-c3cc4ccccc4n3CC3CC3)n(Cc3cn[nH]c3)c12 [Example 247, (1-((1H-pyrazol-4-yl)methyl)-2-(1-(cyclopropylmethyl)-1H-indol-2-yl)-7-methoxy-1H-benzo[d]imidazol-5-yl)((1R,4R,7R)-7-amino-2-azabicyclo[2.2.1]heptan-2-yl)methanone]
18 | 35 nM | COc1cc(C(=O)N2C[C@H](N)C[C@@H](F)C2)cc2nc(-c3cc4ccccc4n3CC3CC3)n(CCC3CCS(=O)(=O)CC3)c12 [Example 249, ((3R,5R)-3-amino-5-fluoropiperidin-1-yl)(2-(1-(cyclopropylmethyl)-1H-indol-2-yl)-1-(2-(1,1-dioxidotetrahydro-2H-thiopyran-4-yl)ethyl)-7-methoxy-1H-benzo[d]imidazol-5-yl)methanone]
19 | 22 nM | COc1cc(C(=O)N2C[C@H]3CC[C@@H]2[C@@H]3N)cc2nc(-c3cc4ccccc4n3CC3CC3)n(Cc3cc(C)nn3C)c12 [Example 252, (1R,4R,7R)-2-{2-[1-(cyclopropylmethyl)-1H-indol-2-yl]-1-[(1,3-dimethyl-1H-pyrazol-5-yl)methyl]-7-methoxy-1H-1,3-benzodiazole-5-carbonyl}-2-azabicyclo[2.2.1]heptan-7-amine]
20 | 27 nM | COc1cc(C(=O)N2C[C@H]3CC[C@@H]2[C@@H]3N)cc2nc(-c3cc4ccccc4n3CC3CC3)n(Cc3cnn(-c4ccccc4)c3)c12 [Example 253, (1R,4R,7R)-2-{2-[1-(cyclopropylmethyl)-1H-indol-2-yl]-7-methoxy-1-[(1-phenyl-1H-pyrazol-4-yl)methyl]-1H-1,3-benzodiazole-5-carbonyl}-2-azabicyclo[2.2.1]heptan-7-amine]
21 | 31 nM | COc1cc(C(=O)N2C[C@H]3CC[C@@H]2[C@@H]3N)cc2nc(-c3cc4ccccc4n3CC3CC3)n(CCCN3CCCC3=O)c12 [Example 254, 1-(3-{5-[(1R,4R,7R)-7-amino-2-azabicyclo[2.2.1]heptane-2-carbonyl]-2-[1-(cyclopropylmethyl)-1H-indol-2-yl]-7-methoxy-1H-1,3-benzodiazol-1-yl}propyl)pyrrolidin-2-one]
22 | 37 nM | COc1cc(C(=O)N2C[C@H](N)C[C@@H](F)C2)cc2nc(-c3cc4ccccc4n3CC3CC3)n(Cc3cccs3)c12 [Example 255, (3R,5R)-1-{2-[1-(cyclopropylmethyl)-1H-indol-2-yl]-7-methoxy-1-[(thiophen-2-yl)methyl]-1H-1,3-benzodiazole-5-carbonyl}-5-fluoropiperidin-3-amine]

Source: US12692254B2, “Benzimidazole inhibitors of PAD enzymes” (BRISTOL-MYERS SQUIBB COMPANY, priority 2018, dated 2026)
